For the assay, the target named is T1, trypsin (Bos taurus, UniProt P00760).
T1 sequence (P00760 24-246): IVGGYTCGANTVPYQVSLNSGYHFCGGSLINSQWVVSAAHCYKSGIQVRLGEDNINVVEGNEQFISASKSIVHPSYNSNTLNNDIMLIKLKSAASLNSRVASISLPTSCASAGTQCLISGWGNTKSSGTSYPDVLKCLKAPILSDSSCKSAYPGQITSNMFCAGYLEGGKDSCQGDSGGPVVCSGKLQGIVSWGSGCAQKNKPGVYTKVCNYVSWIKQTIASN
Put plainly: Determination of Trypsin-Inhibiting Activity (chromogenic substrate S-2222). It counts as biochemical. As to conditions: inhibitor concentration giving 50% of ΔA/min (405 nm) without inhibitor; 33.3 μM S-2222, 0.1 M Tris-HCl pH 8.3, 37° C.; read-out: I50. On the procedure:
Trypsin-inhibiting activity of the arginine derivatives of this invention was determined by the method described below.
Determination of Trypsin-Inhibiting Activity
Trypsin activity is determined by measuring the rate of formation of para-nitroaniline from synthesized chromogenic substrate Jz-Ile-Glu(γ-OH and γ-OCH3)-Gly-Arg-pNA (S-2222)(benzoylisoleucylglutamyl(γ-OH:γ-OCH3 =1:1)glycylarginine p-nitroanilide) supplied by Kabi Diagnostica Inc. Three (3) ml of a reaction mixture containing 33.3 μM of S-2222 and 0.1 M Tris-HCl buffer solution (pH 8.3) is placed in a cell for spectrophotometry and the cell is placed in the thermostatic cell holder at 37° C. of a Hitachi 124 spectrophotometer. After the cell is kept at 37° C. for 3 minutes, 10 μl of a solution of trypsin dissolved in 0.001N HCl containing 0.05M CaCl2 is added, and increase in absorbance at 405 nm is continuously measured using a recorder to calculate ΔA/min at an initial portion. Various inhibitors in various concentrations are added and ΔA/min values are respectively measured. Data are plotted with the inhibitor concentration as abscissa and ΔA/min as ordinate. From the resulting graph the inhibitor concentrations which give ΔA/min corresponding to 50% of the ΔA/min value when no inhibitor is added are sought as I50.
`COc1ccc2ccc(S(=O)(=O)N[C@@H](CCCNC(=N)N)C(=O)N3CCC(c4cccc(C)c4)CC3)cc2c1` [compound 51]: the IC50 came to 300 nM.

In the case of `Cc1ccc2ccc(S(=O)(=O)N[C@@H](CCCNC(=N)N)C(=O)N3CCC(c4ccccc4)CC3)cc2c1` [compound 12], the IC50 was determined as 1000 nM.

For `N=C(N)NCCC[C@H](NS(=O)(=O)c1ccc2c(c1)Cc1ccccc1-2)C(=O)N1CCC(c2ccccc2)CC1` [compound 11], the IC50 came to 3200 nM.

Consider `CC1CNc2c(cccc2S(=O)(=O)N[C@@H](CCCNC(=N)N)C(=O)N2CCC(c3ccccc3)CC2)C1` (some centres unmarked) [Run No. 1], for which the IC50 came to 2100 nM.

Regarding `COc1cc2ccc(S(=O)(=O)N[C@@H](CCCNC(=N)N)C(=O)N3CCC(c4ccccc4)CC3)cc2cc1OC` [Run No. 3], the IC50 came to 2400 nM.

Consider `COc1ccc2cc(S(=O)(=O)N[C@@H](CCCNC(=N)N)C(=O)N3CCC(c4ccccc4)CC3)ccc2c1` [compound 31], for which the IC50 is 41200 nM.

For `COc1ccc2ccc(S(=O)(=O)N[C@@H](CCCNC(=N)N)C(=O)N3CCC(c4ccc(Cl)cc4)CC3)cc2c1` [compound 41], the IC50 turned out to be 460 nM.

With `COc1ccc2ccc(S(=O)(=O)N[C@@H](CCCNC(=N)N)C(=O)N3CCC(c4ccccc4OC)CC3)cc2c1` [compound 39], the IC50 worked out at 280 nM.

As to `N=C(N)NCCC[C@H](NS(=O)(=O)c1cccc2c1CCCC2)C(=O)N1CCC(c2ccccc2)CC1` [compound 34], the IC50 is 7700 nM.

`COc1ccc2ccc(S(=O)(=O)N[C@@H](CCCNC(=N)N)C(=O)N3CCN(c4ccccc4Cl)CC3)cc2c1` [compound 18]: the IC50 was determined as 330 nM.

Take `COc1ccc2cc(S(=O)(=O)N[C@@H](CCCNC(=N)N)C(=O)N3CCC(c4ccccc4)CC3)cc(OC)c2c1` [compound 13]: the IC50 is 2250 nM.

As to `N=C(N)NCCC[C@H](NS(=O)(=O)c1ccc2ccc(Cl)cc2c1)C(=O)N1CCC(c2ccccc2)CC1` [compound 48], the IC50 came to 1100 nM.

As for `N=C(N)NCCC[C@H](NS(=O)(=O)c1ccc2cc3c(cc2c1)OCCO3)C(=O)N1CCC(c2ccccc2)CC1` [compound 15], the IC50 was determined as 6000 nM.

In the case of `COc1ccc2ccc(S(=O)(=O)N[C@@H](CCCNC(=N)N)C(=O)N3CC[C@H](c4ccccc4)C[C@H]3C(=O)O)cc2c1` [compound 57], the IC50 turned out to be 1900 nM.

Consider `COc1ccc(C2CCN(C(=O)[C@H](CCCNC(=N)N)NS(=O)(=O)c3ccc4ccc(OC)cc4c3)CC2)cc1` [compound 52], for which the IC50 was determined as 200 nM.

As to `COc1ccc2ccc(S(=O)(=O)N[C@@H](CCCNC(=N)N)C(=O)N3CCN(c4cc(Cl)cc(Cl)c4)CC3)cc2c1` [compound 45], the IC50 was found to be 1000 nM.

`N=C(N)NCCC[C@H](NS(=O)(=O)c1ccc2oc3ccccc3c2c1)C(=O)N1CCC(c2ccccc2)CC1` [compound 10]: the IC50 was 2200 nM.

Turning to `COc1cccc(C2CCN(C(=O)[C@H](CCCNC(=N)N)NS(=O)(=O)c3ccc4ccc(OC)cc4c3)CC2)c1` [compound 58], the IC50 is 750 nM.

In the case of `COc1cc2c(S(=O)(=O)N[C@@H](CCCNC(=N)N)C(=O)N3CCC(c4ccccc4)CC3)cccc2cc1C(=O)O` [compound 50], the IC50 was found to be 450000 nM.

In the case of `COc1ccc2ccc(S(=O)(=O)N[C@@H](CCCNC(=N)N)C(=O)N3CCN(c4ccccc4)CC3)cc2c1` [compound 7], the IC50 worked out at 1500 nM.

As to `Cc1cc2ccc(S(=O)(=O)N[C@@H](CCCNC(=N)N)C(=O)N3CCC(c4ccccc4)CC3)cc2cc1C` [compound 32], the IC50 was determined as 9000 nM.

Regarding `N=C(N)NCCC[C@H](NS(=O)(=O)c1ccc2ccc(O)cc2c1)C(=O)N1CCC(c2ccccc2)CC1` [compound 42], the IC50 came to 37000 nM.

In the case of `N=C(N)NCCC[C@H](NS(=O)(=O)c1cccc2c(Cl)cccc12)C(=O)N1CCC(c2ccccc2)CC1` [compound 47], the IC50 stood at 2500 nM.

`CCOC(=O)c1cc2cccc(S(=O)(=O)N[C@@H](CCCNC(=N)N)C(=O)N3CCC(c4ccccc4)CC3)c2cc1OC` [Run No. 49]: the IC50 worked out at 2100 nM.

`COc1ccc2ccc(S(=O)(=O)N[C@@H](CCCNC(=N)N)C(=O)N3CCN(c4ccc(Cl)cc4)CC3)cc2c1` [compound 16]: the IC50 was 690 nM.

Turning to `COc1cc2ccc(S(=O)(=O)N[C@@H](CCCNC(=N)N)C(=O)N3CCC(Cc4ccccc4)CC3)cc2cc1OC` [Run No. 4], the IC50 amounted to 3500 nM.

Regarding `CCOc1c(OC)ccc(S(=O)(=O)N[C@@H](CCCNC(=N)N)C(=O)N2CCC(c3ccccc3)CC2)c1OC` [compound 19], the IC50 came out at 2400 nM.

With `COc1ccc2ccc(S(=O)(=O)N[C@@H](CCCNC(=N)N)C(=O)N3CCC(c4ccccc4)CC3)cc2c1` [Run No. 2, 1-[N^2-(7-methoxy-2-naphthalenesulfonyl)-L-arginyl]-4-phenylpiperidine], the IC50 is 230 nM.

`CCOC(=O)C1CC(c2ccccc2)CCN1C(=O)[C@H](CCCNC(=N)N)NS(=O)(=O)c1ccc2ccc(OC)cc2c1` (some centres unmarked) [Run No. 23]: the IC50 was found to be 650 nM.

On to `N=C(N)NCCC[C@H](NC(=O)c1cccc2ccccc12)C(=O)N1CCC(c2ccccc2)CC1` [compound 14], for which the IC50 came out at 395000 nM.

Consider `COc1ccc2ccc(S(=O)(=O)N[C@@H](CCCNC(=N)N)C(=O)N3CC[C@@H](c4ccccc4)C[C@@H]3C(=O)O)cc2c1` [compound 56], for which the IC50 amounted to 150 nM.

Take `COc1cc2ccc(S(=O)(=O)N[C@@H](CCCNC(=N)N)C(=O)N3CCN(c4ccccc4)CC3)cc2cc1OC` [compound 9]: the IC50 was 7800 nM.

`COc1ccc2ccc(S(=O)(=O)N[C@@H](CCCNC(=N)N)C(=O)N3CCN(c4cccc(C(F)(F)F)c4)CC3)cc2c1` [compound 46]: the IC50 is 1600 nM.

For `N=C(N)NCCC[C@H](NS(=O)(=O)c1ccc2ccccc2c1)C(=O)N1CCC(c2ccccc2)CC1` [compound 38], the IC50 came out at 3200 nM.

As to `COc1ccc2ccc(S(=O)(=O)N[C@@H](CCCNC(=N)N)C(=O)N3CCC(c4ccc(C)cc4)CC3)cc2c1` [compound 53], the IC50 was found to be 370 nM.

Consider `COc1ccc2ccc(S(=O)(=O)N[C@@H](CCCNC(=N)N)C(=O)N3CCC(c4ccccc4C)CC3)cc2c1` [compound 40], for which the IC50 amounted to 400 nM.

Take `Cc1ccc(S(=O)(=O)N[C@@H](CCCNC(=N)N)C(=O)N2CCN(c3ccccc3)CC2)cc1` [compound 8]: the IC50 was found to be 74000 nM.

Take `COc1ccc2ccc(S(=O)(=O)N[C@@H](CCCNC(=N)N)C(=O)N3CCN(c4ccccc4C)CC3)cc2c1` [compound 22]: the IC50 stood at 400 nM.

Regarding `COc1ccc2ccc(S(=O)(=O)N[C@@H](CCCNC(=N)N)C(=O)N3CCN(c4ccccc4O)CC3)cc2c1` [compound 55], the IC50 is 800 nM.

Turning to `COc1ccc2ccc(S(=O)(=O)N[C@@H](CCCNC(=N)N)C(=O)N3CCC(Oc4ccccc4)CC3)cc2c1` [compound 43], the IC50 amounted to 25000 nM.

Turning to `CCOc1ccc2ccc(S(=O)(=O)N[C@@H](CCCNC(=N)N)C(=O)N3CCC(c4ccccc4)CC3)cc2c1` [compound 21], the IC50 was 900 nM.

As to `COc1ccc2ccc(S(=O)(=O)N[C@@H](CCCNC(=N)N)C(=O)N3CCN(c4ccc(F)cc4)CC3)cc2c1` [compound 26], the IC50 is 860 nM.

Take `COc1ccc(N2CCN(C(=O)[C@H](CCCNC(=N)N)NS(=O)(=O)c3ccc4ccc(OC)cc4c3)CC2)cc1` [compound 28]: the IC50 was determined as 2800 nM.

As to `COc1ccc2ccc(S(=O)(=O)N[C@@H](CCCNC(=N)N)C(=O)N3CCC(C(C)=O)(c4ccccc4)CC3)cc2c1` [compound 27], the IC50 worked out at 35000 nM.

For the molecule `N=C(N)NCCC[C@H](NC(=O)c1ccc2ccccc2c1)C(=O)N1CCC(c2ccccc2)CC1` [compound 44], the IC50 is 110000 nM.

Consider `N=C(N)NCCC[C@H](NS(=O)(=O)c1cccc2ccccc12)C(=O)N1CCC(c2ccccc2)CC1` [compound 37], for which the IC50 was determined as 11000 nM.

With `COc1cccc2cccc(S(=O)(=O)N[C@@H](CCCNC(=N)N)C(=O)N3CCC(c4ccccc4)CC3)c12` [compound 36], the IC50 was determined as 87000 nM.

`CCOC(=O)C1(c2ccccc2)CCN(C(=O)[C@H](CCCNC(=N)N)NS(=O)(=O)c2ccc3ccc(OC)cc3c2)CC1` [Run No. 54]: the IC50 stood at 12000 nM.

For `COc1ccc2ccc(S(=O)(=O)N[C@@H](CCCNC(=N)N)C(=O)N3CCN(c4ccccc4OC)CC3)cc2c1` [compound 20], the IC50 turned out to be 800 nM.

In the case of `COc1ccc(S(=O)(=O)N[C@@H](CCCNC(=N)N)C(=O)N2CCC(c3ccccc3)CC2)c2ccccc12` [compound 29], the IC50 stood at 2200 nM.

Consider `COc1ccc2ccc(S(=O)(=O)N[C@@H](CCCNC(=N)N)C(=O)N3CCC(Cc4ccccc4)CC3)cc2c1` [compound 25], for which the IC50 came to 600 nM.

Take `COc1ccc2ccc(S(=O)(=O)N[C@@H](CCCNC(=N)N)C(=O)N3CCC(C#N)(c4ccccc4)CC3)cc2c1` [compound 30]: the IC50 came to 1300 nM.

For the molecule `COc1ccc2ccc(S(=O)(=O)N[C@@H](CCCNC(=N)N)C(=O)N3CCC(c4ccccc4)CC3C(=O)O)cc2c1` (some centres unmarked) [compound 24], the IC50 stood at 400 nM.

These data come from patent US4764618A, “Arginine derivatives and pharmaceutically acceptable acid addition salts thereof” (Mitsubishi Chemical Industries Limited, priority 1984, dated 1988).
